Measured values as given in ChEMBL document CHEMBL3507680, “University of Dundee, Gates Library screen for HepG2 cell viability”.

assay: Human HepG2 cell viability assay in 384 well format; type: toxicity, cell-based; parameters: dose 125 nL, time 70.5 hour; cytotoxicity at 70.5 h: concentration not given beside the values; settings: HepG2 cells, read-out: Inhibition

Row | Compound | cytotoxicity at 70.5 h
1 | CC(C)c1ocnc1C(=O)Nc1cccc(Cn2ccccc2=O)c1 | 19%
2 | CCN1CC(=O)c2sc(NC(C)C)nc2C1 | 5.33%
3 | CCn1c(C)nnc1CN(C)C1CCN(CC2CCC2)C1 (stereo not given) | 26.1%
4 | CC(O)(CNC(=O)NCCc1ccc2c(c1)CCO2)c1ccccc1 (stereo not given) | -0.353%
5 | CNC(=O)C1CCN(C(=O)NCc2ccc(-c3ccn[nH]3)cc2)CC1 | -3.31%
6 | Clc1cncc(NCc2cccc(OCCN3CCOCC3)c2)n1 | -8.21%
7 | COCC1CCCN(C(=O)c2ccccc2NCc2cccnc2)C1 (stereo not given) | 3.32%
8 | Cc1ccc(SCCN(C)C(=O)c2cn([C@H]3CC[C@@H](N)CC3)nn2)cc1 | 16.5%
9 | CCc1noc(C)c1C(=O)NCc1c(C)nn(CCOC)c1C | -4.73%
10 | CNC(=O)COC1COC2(CCN(c3ccc(C)nn3)CC2)C1 (stereo not given) | 0.115%
11 | O=C(CN1CCN(c2ccnc3c(F)ccc(F)c23)CC1)N1CCCC1 | 8.2%
12 | COC(CNC(=O)c1ccoc1)c1cccc(Cl)c1 (stereo not given) | -5.07%
13 | Nc1nccc(N[C@H]2CN(CC(=O)NC3CCCCC3)C[C@@H]2C2CC2)n1 | 5.92%
14 | CCN(C)c1ncnc2c1CCN(C(=O)c1ccccn1)CC2 | 17.4%
15 | Cc1cc(C)n(CC2CCCN2C(=O)CCc2cscn2)n1 (stereo not given) | -8.27%
16 | CO[C@@H]1CCN(C(=O)c2ccsc2)[C@@H]2CN(CC3CC3)C[C@@H]21 | -4.96%
17 | CN(CC1=CCCN(CCc2ccccn2)C1)C(=O)c1ccco1 | -9.19%
18 | Cc1ccccc1NS(=O)(=O)c1cc2c(c(C(=O)O)c1)OCCO2 | 6.41%
19 | Fc1cnc(N2CCCC3(CCN(Cc4ccco4)C3)C2)nc1 (stereo not given) | 10.4%
20 | CCOC(=O)NC(CNC(=O)c1cc(Cl)ccn1)CC(C)C (stereo not given) | 5.7%
21 | CCCn1cc(CN2CCCC2c2nccc(CN(C)C)n2)cn1 (stereo not given) | 21.3%
22 | O=C(CCNC(=O)c1ccccc1F)NCCNc1cccnc1 | 1.94%
23 | Cc1ccnn1CC(=O)N(C)Cc1ccc(-n2cccn2)cc1 | -7.33%

Row | Compound | cytotoxicity at 70.5 h
24 | O=C(NCCSC1CCCC1)c1cnccn1 | 29.4%
25 | COCCn1ccc(=O)c(OCC(=O)Nc2ccc(OC)cc2)c1C | -12%
26 | COc1cccc2ccc(N3CCC(O)(C(=O)O)CC3)nc12 | -16.9%
27 | CNC(=O)c1cc2c(nc1NCC1CC1)CCN(CC1CC1)CC2 | -26.7%
28 | COCC(=O)N1CCC2(CC(C(=O)NCc3cccnc3)=NO2)C1 (stereo not given) | -5.23%
29 | COCc1nc(C)cc(Nc2ccc3c(c2)CC(=O)N3)n1 | -7.41%
30 | CO[C@H]1CCN(S(=O)(=O)c2cccnc2)[C@@H]2CN(CC3CC3)C[C@H]12 | -6.81%
31 | CC1=NN(c2ccc(C(=O)OCCNC(=O)c3ccncc3)cc2)CC1 | -2.48%
32 | CN(CCCc1nccn1C)c1nccc(-c2cc(C(=O)O)ccn2)n1 | -3.33%
33 | Oc1cc(CCC2CCCCN2)cc(-c2ccncc2)c1 (stereo not given) | 17.4%
34 | COCC(C)NC(=O)c1cncc(Br)c1 (stereo not given) | -0.743%
35 | CN(C)c1cc(CNC(=O)C2COc3ccccc3O2)ccn1 (stereo not given) | -6.63%
36 | COc1ccccc1CC(=O)NC1CCCc2cn[nH]c21 (stereo not given) | -0.577%
37 | OCc1cn(Cc2cccc(F)c2)nn1 | -12.4%
38 | c1ccc(Cn2cccn2)c(CN2CCC3(CCCNC3)C2)c1 (stereo not given) | 0.428%
39 | CS(=O)(=O)CCSc1nnc(Cc2ccccc2F)o1 | -1.57%
40 | COc1ccc(OC)c(-n2c(COC(C)C)n[nH]c2=O)c1 | -4.44%
41 | Cn1cnnc1C1CCCN(C(=O)NCCn2ccnc2)C1 (stereo not given) | -10.4%
42 | Cc1cccc(CN2CCC3(CC2)CC(Oc2cccnc2)C3)n1 | -0.691%
43 | CN(C)C(=O)Cc1ccccc1NCc1cccc(F)c1F | 0.378%
44 | Cc1cnc(C(=O)N2Cc3ccccc3OC3(CCOCC3)C2)cn1 | 1.74%
45 | CC(C)N(CCNC(=O)c1[nH]nc2ccc(I)cc12)C(C)C | -1.97%
46 | O=C(Nc1ccc(F)c(F)c1)N1CCC2(CCC(=O)N(C3CC3)C2)CC1 | -5.15%

Row | Compound | cytotoxicity at 70.5 h
47 | CCn1cnnc1C1CCN(C(=O)Cc2ccc(OC)c(F)c2)CC1 | -7.22%
48 | COc1ccc2c(c1)CC(C1CCOCC1)N(C(=O)c1ccnn1C)C2 (stereo not given) | -0.842%
49 | Cc1cnc(N2Cc3nccn3CC(Cn3nc(C)nc3C)C2)nc1 (stereo not given) | 0.499%
50 | O=C(CN1CC(c2nc(-c3cccs3)no2)C1)NCC1CCCO1 (stereo not given) | -2.94%
51 | c1ccc(CN2CCC3(COCc4cnc(NCC5CC5)nc43)C2)cc1 (stereo not given) | -3.62%
52 | CCc1nc(NS(=O)(=O)c2cc(C)cc(F)c2)no1 | -0.337%
53 | Cc1cccc(CN2Cc3[nH]nc(COCC4CC4)c3C2)n1 | 3.89%
54 | CCC(C)(CC(=O)OC)NCc1c(C)noc1C (stereo not given) | -4.55%
55 | Cc1nc(NC2CCCC2)cc(C2CCN2c2ncccn2)n1 (stereo not given) | -5.59%
56 | Cc1cc(NC(=O)NCc2cccnc2OC2CCCC2)n(C)n1 | -2.74%
57 | N#CCCN(C(=O)CCc1cscn1)c1ccc2c(c1)OCCO2 | 16.5%
58 | O=C(c1ccc(S(=O)(=O)N2CCSCC2)cc1)N1CCCCCC1 | 14.7%
59 | CN1C(=O)C2(CCN(CC3CC3)CC2)c2ccccc21 | -2.61%
60 | Cn1cnnc1-c1cncc(NCc2cccc3c2OC(C)(C)C3)c1 | 8.22%
61 | CCc1noc(C2CCCCN2C(=O)c2ccccc2)n1 (stereo not given) | -1.29%
62 | CS(=O)(=O)CCC(=O)NC1(c2cccc(C(F)(F)F)c2)CCC1 | -24.7%
63 | O=c1n(CC2CC2)nc(C2CCNCC2)n1Cc1ccccc1 | 9.69%
64 | Cn1ccnc1CN(Cc1cccnc1)CC1CCCO1 (stereo not given) | -8.2%
65 | Cc1cnc(N2C[C@@H]3[C@@H](C(=O)NCC(C)C)CCS(=O)(=O)[C@@H]3C2)nc1 | 0.36%
66 | COCC(=O)N1CCN(c2ncnc3cccc(F)c23)CC1 | 0.217%
67 | CC(C)(C(N)=O)N1CCN(C(=O)c2ccn(-c3cccc(Cl)c3)n2)CC1 | -0.38%
68 | COc1ccccc1S(=O)(=O)N1CC(N(C)C)Cc2ccccc21 (stereo not given) | 30.7%
69 | COCCN(C)C(=O)c1ccc2onc(-c3coc(C)n3)c2c1 | -16.8%

Row | Compound | cytotoxicity at 70.5 h
70 | CN1CCOC(C(=O)N2CCOC3(CCCC3)C2)C1 (stereo not given) | -1.85%
71 | Cc1occc1C(=O)N1Cc2nccn2CC(CN2CCOCC2)C1 (stereo not given) | -6.67%
72 | c1cncc(-n2cnnc2CCCN2CCOCC2)c1 | 1.35%
73 | CC(C)NC(=O)N1Cc2nccn2CC(COc2cccnc2)C1 (stereo not given) | 9.72%
74 | N#Cc1cccc(CN2CCn3cc(CNC(=O)C4CCC4)nc3C2)c1 | -6.27%
75 | Cc1cnc(CC2COCCN(C(=O)c3cncs3)C2)cn1 (stereo not given) | -1.74%
76 | CC(=O)N1N=C(COc2ccc3c(c2)OCO3)OC1c1ccc(C)cc1 (stereo not given) | -14.5%
77 | CN(C)S(=O)(=O)c1ccc2c(c1)N(Cc1ccccn1)CCC2 | -1.38%
78 | O=C(CCc1ccsc1)N1CCCCC1Cn1cccn1 (stereo not given) | -9.96%
79 | O=C(c1ccoc1)N1CC[C@@H]2[C@H]1CCC(=O)N2c1ccccc1 | -7.05%
80 | COc1ccc(C(=O)NCCc2nnc3ccccn23)c(OC)c1 | 8%
81 | Cc1cc(Oc2ccccc2)nc(C2CCN(CCO)CC2)n1 | -6.09%
82 | CSCCCN1CCn2nc(CNC(C)=O)cc2C1 | 14.2%
83 | CCNS(=O)(=O)c1ccc2c(c1)c(=O)n(CC)c(=O)n2CC | 2%
84 | CNc1ccc(CC2CCCN(C(=O)c3cncnc3C)C2)nn1 (stereo not given) | -0.989%
85 | Cc1c(C)n(Cc2ccccn2)c2nc3c(c(N)c12)CCCCC3 | 27.5%
86 | COC(=O)c1cccc(C(=O)N(CCC#N)CC(C)(C)C)c1 | 1.22%
87 | CC(C)(O)c1cc(CC2(NCc3ccco3)COC2)no1 | -7.88%
88 | Cc1nc(CN2CCN(C(=O)CCc3cccnc3)CC2)no1 | 16.4%
89 | Cc1ncc(S(C)(=O)=O)c(N2CCCCCC2)n1 | 7.29%
90 | COc1ccc(C)cc1NC(=O)Nc1cnc(N2CCCC2)nc1 | 1.09%
91 | COc1cc(C2SC(C)=Nc3c2c(=O)[nH]n3C2CCCC2)ccc1O (stereo not given) | -9.1%
92 | CCOCc1nc(CSc2ccncc2)n(C)n1 | 6.25%

Row | Compound | cytotoxicity at 70.5 h
93 | CC(C)CN1CC[C@H](c2nnc(COc3ccc(F)cc3)o2)C1 | -3.77%
94 | CCCN(CC1COc2ccccc2O1)C(=O)C1=NN(C)C(=O)CC1 (stereo not given) | -9.94%
95 | Cc1cc(C)n(CC2CN(Cc3ccccn3)CCO2)n1 (stereo not given) | 1.96%
96 | CCn1cc(NC(=O)NCc2ccc(CN3CCOCC3)cc2)cn1 | -6.5%
97 | CCc1nnc2n1CCN(C(=O)c1cc3ccc(F)cc3nc1C)C2 | -3.67%
98 | O=C(CCn1cncn1)N1CCCC1c1noc(C2CC2)n1 (stereo not given) | -7.06%
99 | Cc1cnc(CN2CCC(N(C)Cc3noc(C4CC4)n3)C2)o1 (stereo not given) | 11.7%
100 | CCC(=O)NCC1(O)CCC(C(C)(C)C)CC1 (stereo not given) | -4.59%
101 | CNc1nc(C(=O)N2CCCn3nc(C(=O)N4CCCC4)cc3C2)cs1 | -11.2%
102 | CN(Cc1cccnc1N)Cc1cccc2ncccc12 | -15.9%
103 | Cc1cc(=O)n(C)cc1NC(=O)Cc1cccc(F)c1 | -2.92%
104 | Cc1occc1C(=O)N1C[C@@H]2OCCN(C(C)C)[C@@H]2C1 | 5.55%
105 | Cc1oc(-c2ccsc2)nc1CNC(C)Cn1cccn1 (stereo not given) | 11.6%
106 | CC1(C(=O)N2CCOCC2)CN(Cc2ccccn2)CCO1 (stereo not given) | 26.2%
107 | CCN(CC1CN(CC2CCC2)CCO1)c1cccnn1 (stereo not given) | -6.19%
108 | Cc1ccsc1-c1nccn1CCS(C)(=O)=O | 16.2%
109 | CC(C)(C)C(Cn1ccnc1)NC(=O)NCc1ccco1 (stereo not given) | -7.73%
110 | CCN1CCC2(CC1)C(=O)Nc1ccc(C(=O)NC)cc12 | 4.51%
111 | COc1cc(C(=O)N2CCCC(CNS(C)(=O)=O)C2)cc(OC)c1C (stereo not given) | -13.5%
112 | O=C(c1ccco1)N1CCC[C@]2(C[C@H](Oc3ncccc3F)CO2)C1 | -1.08%
113 | Cn1cc(C(C)(O)CNc2ccc(Cl)c(C#N)n2)cn1 (stereo not given) | 5.37%
114 | CN(Cc1cccs1)C1CCC[C@@H]2CN(C(=O)c3cnccn3)C[C@H]12 (stereo not given in full) | -7.78%
115 | N#Cc1cccc(CN2CC3(CCCCN3c3cccnc3)CC2=O)c1 (stereo not given) | -1.1%
